Assay results from ChEMBL document CHEMBL4706752 (ACS Med Chem Lett, 2021).

Columns and labels:
[1] = test system: Mus musculus; assay: Antiinflammatory activity in DBA/1J mouse model of collagen-induced arthritis assessed as reduction in clinical score at 10 mg/kg, po dosed twice daily for 21 days measured on day 51; type: functional; conditions: 504 h, time 21 day
[2] = Decrease in IL-6 gene expression in C57BL/6 mouse model of IL-23 induced acanthosis model of psoriasis at 5 mg/kg, po BID for 10 days by RT-PCR analysis; type: functional; conditions: C57BL/6, po, 240 h, time 10 day
[3] = Half life in cynomolgus monkey at 1 mg/kg, iv; type: ADME, organism-based, Macaca fascicularis; conditions: in vivo
[4] = test system: Mus musculus; assay: Suppression of ear thickness in C57BL/6 mouse model of IL-23 induced acanthosis model of psoriasis assessed as AUC of %change in ear thickness at 20 mg/kg, po BID for 10 days measured every other day; type: functional; conditions: time 10 day
[5] = test system: Mus musculus; assay: Antiinflammatory activity in DBA/1J mouse model of collagen-induced arthritis assessed as reduction in histological score at 5 mg/kg, po dosed twice daily for 21 days; type: functional; conditions: 504 h, time 21 day
[6] = Decrease in IL-17a gene expression in C57BL/6 mouse model of IL-23 induced acanthosis model of psoriasis at 5 mg/kg, po BID for 10 days by RT-PCR analysis; type: functional; conditions: C57BL/6, po, 240 h, time 10 day
[7] = AUC in Sprague-Dawley rat at 4 mg/kg, po; type: ADME, organism-based; set-up: dose 4 mg/kg; conditions: in vivo
[8] = test system: Mus musculus; assay: Suppression of ear thickness in C57BL/6 mouse model of IL-23 induced acanthosis model of psoriasis at 5 to 20 mg/kg, po BID for 10 days measured every other day; type: functional, organism-based; conditions: dose 5-20 mg/kg, time 10.0 day
[9] = test system: Mus musculus; assay: Antiinflammatory activity in DBA/1J mouse model of collagen-induced arthritis assessed as reduction in clinical score at 5 mg/kg, po dosed twice daily for 21 days measured on day 51; type: functional; conditions: 504 h, time 21 day
[10] = Clearance in Sprague-Dawley rat at 2 mg/kg, iv; type: ADME, organism-based; conditions: in vivo
[11] = Unbound volume of distribution at steady state in Balb/c mouse at 2 mg/kg, iv; type: ADME, organism-based; conditions: in vivo
[12] = Clearance in Balb/c mouse at 2 mg/kg, iv; type: ADME, organism-based; conditions: in vivo

half-life [3]: 12 h | AUC [7]: 44.9 µM·h | clearance [10]: 1.9 mL/min/kg | fVdss [11]: 2.2 L/kg | clearance [12]: 2.1 mL/min/kg
SMILES: C[C@@](O)(CS(C)(=O)=O)C(=O)N[C@@H]1CC[C@@]2(S(=O)(=O)c3ccc(F)cc3)c3ccc(C(F)(C(F)(F)F)C(F)(F)F)nc3CC[C@@H]12
inhibition in vivo at 10 mg/kg [1]: 64% | inhibition in vivo at 5 mg/kg [2]: 55.8% | Activity [4]: 77.2% | inhibition in vivo at 5 mg/kg [5]: 59% | inhibition in vivo at 5 mg/kg [6]: 57.5% | Activity [8]: Dose-dependent effect | inhibition in vivo at 5 mg/kg [9]: 48%
